Test results published in patent publication US11661398B2, “Cellular transport system for transferring a sulfonic acid construct carrying a cargo into the cytoplasm of a cell” (Scientist of Fortune, S.A., priority 2017, dated 2023).
Peptide text beside a SMILES is read from it.

How the values were obtained:
TK090 = assay: Complementation of NAD+ auxotrophic strain; assay type: cell-based, E. coli; conditions: for growth with compound as sole source of NAD+: spent MS minimal medium, 25 μM N-picolyl-sulfobutyramide, different plasmid combinations; for concentration needed to support growth as NAD+ source: TK090[pSsuABC, pPnGGT*]
Description: FIG. 27. Utilization of NAD^+ precursors. NAD^+ auxotrophic strain TK090 [pSsuABC; pPnGGT*] was grown in MS minimal medium containing 0.5% glucose, 1 mM MgSO4, 0.4 mM leucine, 0.5 mM IPTG, 100 ng ml^−1 aTc and varying concentrations of either 3-picolylamine (a) or nicotinic acid (b). […] Dots represent the average of three independent measurements with standard deviations shown as error bars.
Selection experiments with NAD^+ auxotrophic strains are prone to contamination with unwanted NAD^+ sources and therefore demand special preparation of the precultures and medium. For the precultures, all tested strains were incubated overnight in MS minimal medium supplemented with 0.5% glucose, 1 mM MgSO4, 0.4 mM L-leucine and 5 μM nicotinic acid. To guarantee complete consumption of nicotinic acid, precultures were then diluted 100-fold in MS minimal medium supplemented only with 0.5% glucose, 1 mM MgSO4 and 0.4 mM L-leucine, but no additional NAD^+ source. Following an overnight incubation period, NAD^+-deprived cells were washed twice in the same medium and used for growth assays.
To prepare the medium for final growth assays, MS minimal medium was supplemented with 0.5% glucose, 1 mM MgSO4, 0.4 mM L-leucine and 25 μM N-picolyl-sulfobutyramide (see below for description of synthesis). To remove all NAD^+ contaminants, the medium was inoculated overnight with strain TK090, which can utilize free NAD^+ precursors, but cannot take up or hydrolyze N-picolyl-sulfobutyramide due to the absence of SsuABC and PnGGT*. After an overnight incubation period, cells were separated from the medium by centrifugation and the supernatant was filtered using a Minisart 0.22 μm High Flow Syringe Filter (Sartorius, Goettingen, Germany). The filtered supernatant was then supplemented with the respective antibiotics and inducers and used for growth assays.

TK054 ΔpcnB = assay: Leucine auxotrophy complementation with peptide vector; assay type: cell-based, E. coli; conditions: 1 mM peptide, 6×His_PnGGT ΔN24 expressed, IPTG present
Description: (§1) LB Miller broth (Becton Dickinson, Sparks, Md., USA) was used as standard growth medium for bacterial cultures (Sambrook, 2001). For the preparation of competent cells, SOB medium was used (Hanahan, 1983). Unless stated otherwise, growth experiments in selective medium were carried out in M9 minimal medium (Sambrook, 2001) supplemented with 0.5% glucose, 1 μg mL^−1 thiamine, 0.5 mM IPTG and 1 mM alanyl-γ-glutamyl-leucine (>95% purity, custom synthesized by Pepscan, Lelystad, Netherlands). For growth experiments on solid medium Bacto Agar (Becton Dickinson) was added to a final concentration of 1.5%. Growth experiments in liquid medium were performed either in a Tecan Infinite 200 Pro plate reader (Tecan, Mannedorf, Switzerland) or in a Biolector Basic Microbiorector System (m2p-labs, Baesweiler, Germany). All growth experiments were performed at 37° C. […]
To verify that the beneficial effects to growth with Ala-γ-Glu-Leu were caused by activity reducing mutations in pcnB, the entire gene was removed from the unmutated leucine auxotrophic selection strain, resulting in strain TK054 ΔpcnB. On M9 minimal medium containing 0.5% glucose and 1 mM Ala-γ-Glu-Leu as the only source of leucine, no growth of this strain was detected if the inducer IPTG was omitted (FIG. 6a). […]

TK054 = assay: as above; assay type: cell-based, E. coli; conditions: 1 mM peptide, plasmid pACT3/6×His_PnGGT ΔN24, 0.5 mM IPTG, 37° C., 5 days or more
Description: as §1
The possibility to express 6×His_PnGGT ΔN24 in the cytoplasm of E. coli and the enzyme's relaxed substrate specificity (Imaoka et al., 2010) opened up the possibility to selectively hydrolyze γ-glutamyl compounds within the cytoplasm. […] As a cargo, leucine was chosen, whose successful release could be easily detected by restoring growth to a leucine auxotrophic strain. […]

TK082 = assay: In vivo hydrolysis of sulfobutanoyl-p-nitroanilide and sulfobutanoyl-AMC; assay type: cell-based, E. coli
Description: Strain TK082 was transformed with plasmids as indicated in the text and grown at 37° C. in MS minimal medium supplemented with 0.5% glucose, 1 mM MgSO4 and 0.4 mM L-leucine to an OD600 of 0.5. At that stage, the synthesis of PnGGT* and/or SsuABC was induced for 2 hours by adding 0.5 mM IPTG and 100 ng mL^−1 aTc. Following this synthesis period, cells were washed in the same medium to remove proteins that had been released into the medium by cell lysis. After an additional centrifugation step, cells were resuspended in MS minimal medium supplemented with 0.5% glucose, 1 mM MgSO4, 0.4 mM L-leucine, 0.5 mM IPTG, 100 ng mL^−1 aTc and 0.5 mM sulfobutanoyl-p-nitroanilide or sulfobutanoyl-AMC (see below for description of synthesis) and incubated in a Tecan Infinite 200 Pro plate reader at 37° C. To monitor cell density and the release of 4-nitroaniline, absorbance was constantly measured at 600 nm and 410 nm. The release of AMC was monitored by measuring the fluorescence at λex=350 nm and λem=450 nm. To determine the influence of competition for the sulfonate transporter SsuABC, different concentrations of pentanesulfonate (Sigma Aldrich) were added to the medium.

BW25113 ΔleuB (TK080) = assay: Growth on different sulfur sources; assay type: cell-based, E. coli; conditions: 1 mM sulfur source, minimal medium, 0.5% glucose, 0.4 mM leucine
Description: FIG. 21: Growth of E. coli on sulfonates. Strains TK080 (a; BW25113 ΔleuB) and TK082 (b; BW25113 ΔleuB ΔssuEADCB ΔtauD) were grown in MS minimal medium supplemented with 0.5% glucose, 0.4 mM L-leucine, 1 mM MgCl2 and 1 mM of a sulfur source. TK080 was able to use the majority of the tested sulfur sources with a similar efficiency as sulfate. […] Dots represent the average of three independent measurements with standard deviations shown as error bars.
For the experiments relating to the sulfonate based synthetic transport system, unless stated otherwise, growth experiments in selective medium were carried out in sulfur free MS minimal medium (4 mM citric acid, 1 mM MgCl2, 20 mM NH4Cl, 50 mM KH2PO4 and 1×NTA mix (10 μM nitrilotriacetic acid, 3 μM CaCl2, 3 μM FeCl3, 1 μM MnCl2, 0.3 μM ZnCl2, 0.3 μM H3B3, 0.3 μM CrC3, 0.3 μM COCl2, 0.3 μM CuCl2, 0.3 μM Ni2C, 0.3 μM Na2MoO4, 0.3 μM Na2SeO3)) supplemented with 0.5% glucose. MgSO4 (1 mM), MgCl2 (1 mM), L-leucine (0.4 mM), IPTG (0.5 mM), aTc (100 ng mL-1), nicotinic acid (various concentrations), 3-picolylamine (various concentrations) and sulfonates (various concentrations) as indicated in the text. […] Synthesis schemes for sulfobutanoyl-p-nitroanilide and other sulfonates are given below.
The sulfonate transporters SsuABC and TauABC transport a wide variety of sulfonate compounds (Eichhorn et al., 2000) and can thus be exploited for the present synthetic transport system. As such, the uptake and utilization of sulfobutanoyl-L-leucine was assessed. The leucine auxotrophic strain BW25113 ΔleuB was tested for growth in minimal medium supplemented with 0.5% glucose, 0.4 mM leucine, 0.4 mM isoleucine and 1 mM of a sulfur-containing compound as the sole sulfur source.

TK088[pSsuABC] = assay: Growth of histidine auxotrophic strain in liquid medium; assay type: cell-based, E. coli; conditions: liquid MS minimal medium, 0.5 mM compound, pACT3 versus pPnGGT*
Description: FIG. 22: Identification of GGT* activity and refactoring of the ssuABC operon. (a) Cell free extracts of strain TK018 synthesizing either EcGGT, EcGGT D433N, PnGGT or PnGGT D405N were incubated with 2 mM of the substrates γ-glutamyl-p-nitroanilide or sulfobutanoyl-p-nitroanilide (5), respectively. The release of 4-nitroaniline was quantified by measuring the absorption at 410 nm. (b) Plasmid map of the three-dimensional RBS-library for refactoring the ssuABC operon using 144 RBS variants per gene. RBS library sequences are underlined. Arrows point towards the final RBS sequences observed in plasmid pSsuABC. […] (e) Growth of strain TK088[pSsuABC]transformed with the empty vector pACT3 (black circles) or plasmid pPnGGT* (white circles) in liquid MS minimal medium supplemented with 0.5% glucose, 1 mM MgSO4, 0.4 mM L-leucine, 0.5 mM IPTG, 100 ng ml^−1 aTc and 0.5 mM sulfobutanoyl-L-histidine. Bars and dots from panels (a), (d) and (e) represent the average of three independent measurements with standard deviations shown as error bars. […]

[1] = substrate: CC(C)C[C@H](NC(=O)CCCS(=O)(=O)O)C(=O)O; assay: purified protein, by the assay type; conditions: other: kinetic studies cited in Example 11, conditions not given

O=C(CCCS(=O)(=O)[O-])NCc1cccnc1.[Na+] [N-picolyl-sulfobutyramide, N-(3-Pyridinylmethyl)sulfobutyramide sodium salt]
growth with compound as sole source of NAD+ (TK090): only observed when both the sulfonate transporter SsuABC and PnGGT* were synthesized simultaneously

O=C(O)c1cccnc1 [nicotinic acid]
concentration needed to support growth as NAD+ source (TK090; MS minimal medium): sub-micromolar concentrations

CC(C)C[C@H](NC(=O)CC[C@H](NC(=O)[C@H](C)N)C(=O)O)C(=O)O [Ala-γ-Glu-Leu, alanyl-γ-glutamyl-leucine] (HELM PEPTIDE1{A.[gGlu].L}$$$$V2.0)
growth with peptide as sole source of leucine (TK054 ΔpcnB): grew rapidly | growth with peptide as sole source of leucine (TK054): poor growth

NCc1cccnc1 [3-picolylamine]
concentration necessary to complement the NAD+ auxotrophy compared to nicotinic acid (TK090; MS minimal medium): 500 to 1000 fold | concentration needed to support growth as NAD+ source (TK090; MS minimal medium): above 50 μM | growth with compound as sole source of NAD+ (TK090): no growth was observed

CCCCCS(=O)(=O)O [pentanesulfonate, reference compound]
effect of competitor on release of 4-nitroaniline from 0.5 mM sulfobutanoyl-p-nitroanilide (TK082; TK082[pSsuABC, pPnGGT*]): sufficient to slow down the release of 4-nitroaniline | effect of competitor on release of AMC from 0.5 mM sulfobutanoyl-AMC (TK082; TK082[pSsuABC, pPnGGT*]): sufficient to slow down the release of AMC in the presence of SsuABC

Cc1cc(=O)oc2cc(NC(=O)CCCS(=O)(=O)O)ccc12 [sulfobutanoyl-AMC, N-(4-Methyl-2-oxo-2H-1-benzopyran-7-yl)sulfobutyramide]
growth with compound as sole sulfur source (BW25113 ΔleuB (TK080)): utilized with a lower efficiency | in vivo release of AMC from the compound (TK082; 0.5 mM compound, different plasmid combinations): some release of the dye was detected in a strain expressing only PnGGT*

O=C(CCCS(=O)(=O)O)N[C@@H](Cc1c[nH]cn1)C(=O)O [sulfobutanoyl-L-histidine]
growth with compound as sole sulfur source (BW25113 ΔleuB (TK080)): comparable efficiencies | growth with compound as sole histidine source (TK088[pSsuABC]): Entirely equivalent results | growth with compound as sole histidine source (TK088[pSsuABC]; listed as sulfubutanoyl-L-histidine): grew significantly faster and to higher cell densities

B1: PnGGT ΔN24 D405N (Pseudomonas nitroreducens; D405N) (protein)
chain: MRGSHHHHHHGSACELTLDGGAVAAPDQYGAKVAAEILKKGGNAVDAAVATAFTLAVTYPEAGNIGGGGFMTLYVDGKPYFLDYREIAPKAATKTMYLNEKGEVIENLSLVGAKAAGVPGTVMGLWEAHQRFGKLKWSELLTPAIGYAQTGFKVADQQYQYRQDAIALFNGKTNFGDYFGTMKPGEVFKQPELAKTLERIADKGPDDFYKGETAKLLIAQMKQDGGLITSDDLVDYQAKWREPMRIDWQGNTLYTAPLPSSGGIALAQLIGIKEQRAADFKGVELNSAKYIHLLSEIEKRVFADRADYLGDPQFSKVPVAQLTDPKYIAKRAGEVNPDAISATEKVRPGLEPHQTTHFSIVDKDGNAVSNTYTLNWDFGSGVVVKGAGFLLNDEMDNFSSKPGVANAFGVVGSDANAIEPGKRMLSSMSPSIVTRDGHVSLVLGTPGGSRIFTSIFQVLNNVYDFHLPLEKAVAAQRVHHQLLPKDTIYYDAYAPLPGKVADELKAMGYTLEDQGWNMGDIQAIRVNGKALETASDPRGRGVGMVVKP
Km [1]: 734 µM
